Tests used:
[1] = tested on: platelet-rich plasma (PRP); test: Clot retraction; design: species or system Human; settings: 10 μM; thrombin 0.5 Units/mL; 2 h
Protocol: Clot retraction. Blood was obtained in 3.2% citrate tubes, which were centrifuged for 12 min at 250 g to obtain platelet-rich plasma (PRP). The assay was prepared in Khan tubes by adding 750 μL of tyrodes buffer without calcium, 200 μL of PRP, and 5 μL of red blood cells; the mixture was treated with NP4 10 μM or vehicle and incubated for 10 min. A glass rod was positioned in the center of the tube (as a support for clot adhesion) and clot retraction was initiated by adding 50 μl of 10 Units/mL thrombin (final concentration 0.5 Units/mL). Photographs were recorded at 0; 15; 30; 60; 90; and 120 min time intervals. The clots formed after 2 h were weighed to quantify retraction.

[2] = tested on: Washed platelets; test: Cellular apoptosis (externalization of phosphatidylserine, annexin V); assay type: cell-based, Human; settings: 1, 2, 5, 10 and 20 μM; 15 min
Protocol: (§1) Human platelet purification. The blood sample was obtained from voluntary donors (10 days without antiplatelet medication) who agreed to participate after signing informed consent (Scientific Ethics Committee of the University of Talca N° 04–2022). Briefly, blood anticoagulated with acid-citrate-dextrose (ACD) was obtained in a 4:1 v/v ratio. The sample was centrifuged for 12 min at 250 g to obtain platelet-rich plasma (PRP). Subsequently, the PRP was centrifuged for 8 min at 900 g to obtain the platelet pellet. The plasma supernatant was removed, and the platelets were resuspended in Tyrodes buffer without calcium plus ACD in a ratio of 5:1 v/v. The platelets were centrifuged once more for 8 min at 900 g and the pellet was resuspended in Tyrodes buffer without calcium. Finally, the platelets were counted (Mindray BC-3000 Plus hematology counter, Japan), adjusted to the desired concentration, and used within 3 h.
Cellular apoptosis (externalization of phosphatidylserine). Washed platelets (200-250 × 10^6 platelets/mL) were incubated with the NP4 compound (1, 2, 5, 10 and 20 μM) for 15 min at 37 °C. Then 15 μL of the reaction was mixed with 25 μL of annexin V binding buffer (1x) and labeled with 2 μL of annexin V FITC (BD Pharmingen, FITC Annexin V Apoptosis Detection Kit I). […]

[3] = tested on: Washed platelets; test: Platelet activation markers in washed platelets (flow cytometry); assay type: cell-based, Human; settings: collagen 2 μg/mL; compounds 1, 5 and 10 μM; vs activated control
Protocol: as §1
Platelet activation markers. Washed platelets (200-250 × 10^6 platelets/mL) were incubated with the compounds (1, 5 and 10 μM), then activated with collagen 2 μg/mL and incubated for 5 min at 37 °C. Aliquots of the reaction were then collected and labeled separately with human antibodies (BD Biosciences, San José, CA, USA) for P-selectin, CD63, activated GPIIb/IIIa (PAC-1), and fibrinogen to assess the levels of each marker on the platelet membrane. The sample was acquired using the BD Facs Lyric flow cytometer (BD Biosciences, USA). Representative dot plots are available in Supplementary Figures 8-11 and 20-23. In the case of the activation markers P-selectin and bound fibrinogen in PRP, the same procedure for washed platelets was performed with representative dot plots available in Supplementary Figs. 15 and 16. The platelet population was identified with anti-CD61-PE or anti-CD61-FITC (BD Biosciences, San José, CA, USA).

[4] = tested on: Washed platelets; test: Intraplatelet calcium levels (Fluo-4-AM); assay type: cell-based, Human; settings: compounds 1, 5 and 10 μM, 10 min
Protocol: as §1
Intraplatelet calcium levels. Washed platelets (200-250 × 10^6 platelets/mL) were labeled Fluo-4-AM probe with 0.5 μM and incubated for 20 min at room temperature protected from light. Subsequently, platelets were adjusted to a count of 50 × 10^6 platelets/mL, and compounds (1, 5, and 10 μM) were added and incubated for 10 min at 37 °C. The sample was acquired in the BD Facs Lyric flow cytometer (BD Biosciences, USA). Representative dot plots are available in Supplementary Figs. 13 and 26. As a control for increased intracellular calcium, P-trifluoromethoxyphenylhydrazone carbonylcyanide (FCCP) 1 μM was used.

[5] = tested on: Whole blood; test: Bleeding time in vitro, Innovance PFA-200 closure time; design: species or system Human; settings: 10 μM, 10 min
Protocol: Bleeding time in vitro Innovance PFA-200 system. Blood was obtained in 3.2% citrate tubes which were allowed to settle for 30 min before the test. Whole blood was mixed with NP4 10 μM and incubated for 10 min. Subsequently, the sample was loaded into the Collagen/Epinephrine or Collagen/ADP cartridge and the closure time was measured in the Innovance PFA-200 system (Siemens Healthcare Diagnostics Products, Munich, Germany). Eptifibatide 10 μM was used as a control.

[6] = tested on: platelets; test: Oxygen consumption and extracellular acidification rate (Seahorse XFe24); assay type: cell-based, Human
Protocol: as §1
Oxygen consumption and extracellular acidification rate. Oxygen consumption rate (OCR) and extracellular acidification rate (ECAR) were measured with a Seahorse XFe24 extracellular flux analyzer (Agilent, Santa Clara, CA, USA). Briefly, 100 μL of platelets washed in modified Tyrode-HEPES buffer were deposited (20–25 × 10^6 cells/well) and then centrifuged at 300 g for 10 min. Platelets were incubated with NP4 10 μM for 5 min, and then Tyrode's-HEPES buffer was removed and Seahorse medium (8.3 g/L DMEM, 1.85 g/L NaCl, 5 mM glucose, 1 mM pyruvate, 2 mM glutamine, 5 mM HEPES, pH 7.4) was added to a final volume of 600 μL [70]. OCR was measured before and after the sequential addition of 3 μg/mL collagen, 2.5 μM oligomycin, 1.4 μM FCCP, and 2 μM/2 μM antimycin A/rotenone. Non-mitochondrial OCR was subtracted from all measurements. Respiratory parameters obtained with Mito Stress Test (Supplementary Table 1) were calculated as follows: Baseline (baseline OCR), collagen (OCR after collagen addition), activation (collagen-basal), ATP-independent or proton leak (OCR resistant to oligomycin addition), ATP-linked respiration (basal-proton leak), maximum (OCR obtained after addition of FCCP), and spare (maximal-basal), coupling efficiency (OCR Basal – OCR ATP-indep)/OCR Basal). Respiratory parameters were calculated according to Refs. [66, 70, 73].

With `Cc1c(C)c(O)c2c(c1O)C(=O)C(CCCC[P+](c1ccccc1)(c1ccccc1)c1ccccc1)=CC2(C)C.[Br-]` [NP4, (4-(5,8-dihydroxy-4,4,6,7-tetramethyl-1-oxo-1,4-dihydronaphthalen-2-yl)butyl)triphenyl phosphonium bromide] the “Clot retraction (clot weight)” value [1] was “does not significantly alter”, the “Apoptosis (phosphatidylserine externalization)” value [2] was “none of the concentrations evaluated for NP4 showed significant effects” and the “Bound fibrinogen platelet activation marker” value [3] was “at the 10 μM concentration was able to significantly decrease”. The “CD63 platelet activation marker” value [3] was “at the 10 μM concentration was able to significantly decrease”, the “P-selectin platelet activation marker” value [3] was “at the 10 μM concentration was able to significantly decrease” and the “PAC-1 (activated GPIIb/IIIa) platelet activation marker” value [3] was “at the 10 μM concentration was able to significantly decrease”. For the same molecule, the Intraplatelet calcium levels [4] was “increase it significantly”, the “Closure time PFA-200 Collagen/ADP” value [5] was “does not significantly alter” and the “Closure time PFA-200 Collagen/Epinephrine” value [5] was “does not significantly alter”. The “ATP-dep (OCRBasal – OCRATP-indep)” value ([6]; 10 µM) was 0,2 ± 0,22, the “Activation (OCRCollagen – OCRBasal)” value ([6]; 10 µM) was 0,15 ± 0,14 and the “Coupling efficiency ((OCRBasal – OCRATP-indep)/OCRBasal)” value ([6]; 10 µM) was 0,095 ± 0,075. For the same molecule, the “Spare (OCRMaximum – OCRBasal)” value ([6]; 10 µM) was 1,03 ± 0,29, the “Basal (OCR/10^6 platelets)” value ([6]; 10 µM, Seahorse Mito Stress Test) was 1,33 ± 0,69 OCR/10^6 platelets and the “Maximum (OCR/10^6 platelets)” value ([6]; 10 µM, after 1.4 μM FCCP) was 2,28 ± 0,45 OCR/10^6 platelets. For the same molecule, the “Collagen (OCR/10^6 platelets)” value ([6]; 10 µM, after 3 μg/mL collagen) was 1,29 ± 0,48 OCR/10^6 platelets, the “Non-mito (OCR/10^6 platelets)” value ([6]; 10 µM, after antimycin A/rotenone) was 0,04 ± 0,08 OCR/10^6 platelets and the “ATP-indep (OCR/10^6 platelets)” value ([6]; 10 µM, proton leak, after 2.5 μM oligomycin) was 1,69 ± 0,47 OCR/10^6 platelets. The “Basal extracellular acidification of the media” value ([6]; non-activated platelets, NP4 10 μM, control 87.5 ± 10.6) was 133.9 ± 14.1 mpH/min/10^6 platelets.
